Peptide text beside a SMILES is read from it. * marks the point of attachment. Cbz = O=C(OCc1ccccc1)*; CH2F = FC*

Results on seven compounds are retold here after patent US20060110376A1, “MDA-7 and free radicals in the treatment of cancer” (priority 2002, published 2006).

The subject of test [1] is SKOV3 cells. Put plainly: MTT assay with 4-HPR. In kind it is cell-based, human. The note with it: 500 nM 4-HPR; MTT 96 h. Here is the method: FIG. 35. Effect of transduction by Ad.mda-7 on the growth of the ovarian cancer cell line SKOV3 in the presence or absence of N-(4-hydroxyphenyl) retinamide (4-HPR).
SKOV3 cells (ATCC, Manassas Va.) were plated at 10,000 per well in 24 well plates. 24 h after plating cells were infected with either control virus or Ad.mda-7 virus at increasing multiplicities of viral infection. 24 h after infection, cells were treated with 500 nM 4-HPR. 96 h after 4-HPR addition, cell numbers were determined using MTT assays as described above.

For test [2], the system named is prostate carcinoma cell lines (DU-145, PC-3, LNCaP). The experiment in a line: MTT viability assay. In kind it is cell-based, human. The procedure:
(§1) Cells were seeded in 96-well plates, pretreated with NAC (5 mM) or Tiron (1 mM) for 2 h and infected with Ad.mda-7. Forty eight hours later, viability was assessed by MTT assay. […] Cells were seeded in 96-well plates, infected with Ad.mda-7 and treated with As2O3 (10 μM) or NSC656240 (400 nM). Forty eight h later, viability was assessed by MTT assay. Panel C. […] After treatment, cells were stained using DCF-DA and analyzed using flow cytometry. […] After treatment, cells were washed and stained with Annexin V-FITC conjugate. Late apoptotic and necrotic cells were excluded using PI staining. Results are the mean of three independent experiments performed with triplicate samples±S.E.
[…] Cellular viability was assessed by MTT assay 48 h after infection (Panel A). Mitochondrial membrane potential (DiOC6(3) staining, Panel B) and apoptotic changes (Annexin V staining, Panel C) were assessed 18 h (LNCaP cells) and 24 h (DU-145, PC-3 and P69 cells) after infection.
MTT Viability Assays. This method was performed as described (Lebedeva et al., 2000, Cancer Research 60:6052-6060). […] At the indicated time points, medium was removed, and fresh medium containing 0.5 mg/ml MTT was added to each well. The cells were incubated at 37° C. for 4 h and then an equal volume of solubilization solution (0.01N HCl in 10% SDS) was added to each well and mixed thoroughly. The optical density from the plates was read on a BioRad Microplate Reader Model 550 at 595 nm.

Test [3] deals with prostate cancer cell lines (DU-145, PC-3, LNCaP). Put plainly: Mitochondrial ΔΨm (DiOC6(3)) and ROS time course. In kind it is cell-based, human. The note with it: CsA, BA pretreatment; 18 h (LNCaP), 24 h (DU-145, PC-3). The procedure:
(§2) FIG. 33A-C. […] Prostate cancer and normal immortalized P69 cells were pretreated with inhibitors of MPT CsA (100 nM) or BA (50 μM), with the enhancer of MPT PK11195 (50 μM) or with the pan-caspase inhibitor z-VAD.fmk (50 μM) for 2 h following infection with Ad.vec or Ad.mda-7. Cellular viability was assessed by MTT assay 48 h after infection (Panel A). Mitochondrial membrane potential (DiOC6(3) staining, Panel B) and apoptotic changes (Annexin V staining, Panel C) were assessed 18 h (LNCaP cells) and 24 h (DU-145, PC-3 and P69 cells) after infection.

Test [4] relates to prostate carcinoma cells. Put plainly: ROS production (DCF fluorescence, flow cytometry). The settings on record: treated with NSC656240 or As2O3. In kind it is cell-based, human. The procedure: as §1
In test [5] the test system is pancreatic carcinoma cells. Put plainly: MTT viability assay. The note with it: Ad.mda-7 100 p.f.u./cell. In kind it is cell-based, human. Here is the method:
(§3) MTT Viability Assays. Cell viability was assessed by MTT assays as described (Lebedeva et al., 2000, Cancer Research 60:6052-6060). Briefly, cells were seeded in 96-well tissue culture plates (1.5×10^3 cells per well) and treated with various agents. At the indicated times, medium was removed, and fresh medium containing 0.5 mg/ml MTT was added to each well. The cells were incubated at 37° C. for 4 h and then an equal volume of solubilization solution (0.01N HCl in 10% SDS) was added to each well and mixed thoroughly. The optical density from the plates was read on a BioRad Microplate Reader Model 550 at 595 nm.

Test [6] deals with normal cells (immortalized human astrocytes or melanocytes). The experiment in a line: MTT viability assay. In kind it is cell-based. The note with it: Ad.mda-7 100 p.f.u./cell. Here is the method:
as §3
On the technique in general: Tetrazolium assays rely on reduction of a dye to a coloured formazan, in cell work by metabolically active cells.

In test [7] the test system is pancreatic carcinoma cells. The experiment in a line: Apoptosis (annexin V exposure, hypodiploid A0 cells). The settings on record: annexin V exposure and A0 population. In kind it is cell-based, human. An excerpt:
FIG. 39. Combined treatment of pancreatic carcinoma cells by NSC656240 and Ad.mda-7 increases levels of annexin V in pancreatic cancer cells irrespective of K-ras status.
FIG. 40. NAC administration prevents the apoptosis of pancreatic cancer cells induced by treatment of pancreatic carcinoma cells by NSC656240 or Ar2O3 and Ad.mda-7.
FIG. 41. Combined treatment of pancreatic carcinoma cells by NSC656240 or Ar2O3 and Ad.mda-7 causes apoptosis irrespective of K-ras status.
Annexin V Binding Assays. Cells were trypsinized, washed once with complete medium and stained with FITC-labeled Annexin-V (kit from Oncogene Research Products, Boston, Mass.) according to the manufacturer's instructions. Flow cytometry was performed immediately after staining.
Cell Cycle Analysis. Cells were trypsinized, washed 2× with PBS and fixed in 70% ethanol overnight at −20° C. Then cells were washed 2 times with PBS, and aliquots of 1×10^6 cells were resuspended in 1 ml of PBS containing 1 mg/ml of RNase A and 0.5 mg/ml of propidium iodide. After 30 min incubation, cells were analyzed by flow cytometry using a FACScan flow cytometer (Becton Dickinson, San Jose, Calif.).

Test [8] concerns pancreatic cancer cell lines. The experiment in a line: Western blotting of K-ras and MDA-7 protein. In kind it is cell-based, human. From the text:
FIG. 43. MDA-7 expression in pancreatic cancer cell lines in the presence or absence of Ad.mda-7, Ad.K-rasAS, or NSC656243. The presence of MDA-7 in mutant K-ras cell lines requires expression of both mda-7 and the antisense K-ras construct, and is potentiated by NSC656243.
FIG. 45. The MDA-7 expression observed in the PANC-1 or BxPC-3 cell lines following administration of Ad.mda-7 in combination with either NSC656240 or Ar2O3 is abrogated by NAC administration.
Preparation of Cell Extracts and Western Blotting Analysis. Cells were washed 2× with cold PBS and lysed on ice for 30 min in […] of cold RIPA buffer [50 mM Tris-HCl (pH 8.0), 150 mM NaCl, 0.1% SDS, 1% NP40, and 0.5% sodium deoxycholate] with freshly added 0.1 mg/ml phenylmethylsulfonyl fluoride, 1 mM sodium orthovanadate, and 1 mg/ml aprotinin. After cell debris were removed by centrifugation at 14,000 g for 10 min at 4° C., protein concentrations were determined using the Bio-Rad protein assay system (Bio-Rad Laboratories, Richmond, Calif.). Aliquots of cell extracts containing […] of total protein were resolved in 12% SDS-PAGE and transferred to Immobilon-P PVDF membranes (Millipore Corp., Bedford, Mass.). Filters were blocked for 1 h at room temperature in Blotto A [5% nonfat milk powder in TBS-T: 10 mM Tris-HCl (pH 8.0), 150 mM NaCl, 0.05% Tween 20], and then incubated for 1 h at room temperature in Blotto A containing a 1:1000 dilution of rabbit anti MDA-7 polyclonal antibody. After washing in TBS-T buffer (3×5 min, RT), filters were incubated for 1 h at room temperature in Blotto A containing a 1:10,000 dilution of peroxidase conjugated anti-rabbit secondary antibody (Amersham, Arlington Heights, Ill.). After washing in TBS-T, ECL was performed according to the manufacturer's recommendation.
Background: A western blot detects proteins with antibodies after separation by electrophoresis.

Test [9] has as its system pancreatic carcinoma cells. The experiment in a line: ROS production (flow cytometry). In kind it is cell-based, human. Here is the method:
FIG. 46. Combined treatment by NSC656240 or Ar2O3 and Ad.mda-7 causes overproduction of ROS in pancreatic carcinoma cells.
Assessment of ROS Production. To determine ROS production, cells were stained with 2.5 μM HE or 5 μM DCFH-DA in PBS for 30 min at 37° C. in the dark. Immediately after staining, cells were analyzed by flow cytometry (FACSscan, Becton-Dickinson, Mountain View, Calif.), and data were analyzed using CellQuest software, version 3.1 (Becton Dickinson). For inhibition experiments, NAC (Sigma) was added 2 h prior to infection with Ad.mda-7. In all cases, cells were gated to exclude cell debris.

Test [10] concerns pancreatic cancer cells stably transformed to express MDA-7. Put plainly: Apoptosis and cell death in cells stably expressing MDA-7. In kind it is cell-based, human. An excerpt:
FIG. 49. Induction of apoptosis in pancreatic cancer cell lines (PANC-1) stably expressing MDA-7.
FIG. 50. Induction of apoptosis in pancreatic cancer cell lines (Mia PaCa-2) stably expressing MDA-7.
FIG. 51. Induction of apoptosis in pancreatic cancer cell lines (FM516 or BxPC-3) stably expressing MDA-7.

Test [11] concerns RT2 cells. Put plainly: MTT assay with kinase inhibitors. In kind it is cell-based, rat.
Experimental: Data are the means±SEM of 3 experiments # p<0.05 less than control treated cells, * p<0.05 less than corresponding value in cells not infected with Ad-mda-7. Panel C. […] Data are the means±SEM of 3 separate experiments. […] Data are the means±SEM of 3 separate experiments. […] Cells were incubated with vehicle or SP600125 (10 μM) 30 min prior to irradiation and growth determined via MTT assay 4 days after irradiation (±SEM, n=4).
The MTT test is based on the enzymatic reduction of the tetrazolium salt MTT in living, metabolically active cells. […] Twenty-four hours after infection/protein treatment, cells were treated with kinase inhibitor drugs and then irradiated. […] The plates were read on a Dynatech MR600 Microplate Reader at 540 nm. All data were normalized relative to the control, non-treated unirradiated cells of the corresponding cell type.
The test system of test [12] is normal immortal P69 prostate epithelial cells. The experiment in a line: MTT viability assay. In kind it is cell-based, human. The settings on record: PK11195 50 μM. Here is the method: as §1, §2
MTT Viability Assays. […] The optical density from the plates was read on a BioRad Microplate Reader Model 550 at 595 nm.

As for `CC1=C(/C=C/C(C)=C/C=C/C(C)=C/C(=O)Nc2ccc(O)cc2)C(C)(C)CCC1` [4-HPR, N-(4-hydroxyphenyl) retinamide], in [1], the “effect of 4-HPR on toxic effects of MDA-7 expression” value is reported as “potentiated the toxic effects of MDA-7 expression”.
`CO[C@H](C/C=C\C=C\CC/C=C/C[C@H](C)/C=C/C(=C\C(=O)O)CC(=O)O)/C(C)=C\C=C(/C)C(=O)O` [BA, bongkrekic acid]: the “effect of MPT inhibitor on cell death of Ad.mda-7-infected cells” value in test [2] (CsA (200 nM), BA (50 μM) pretreatment 2 h) was “prevented cell death”. Also, the “effect on Ad.mda-7-induced decline in ΔΨm” value in [3] is reported as “abrogated the decline in ΔΨm”.
On to `O=C1c2ccsc2C(=O)c2sc(CO)cc21` [NSC656240], for which the “effect of ROS-producing agent on cell death of Ad.mda-7-infected cells” value in test [2] (As2O3 10 μM, NSC656240 400 nM, 48 h) is listed as “potentiated cell death”. Further, in test [4], the ROS levels entry is on record as “ROS levels increased proportionally”. The “cell death, combinational treatment with Ad.mda-7” value in test [5] was “caused death of these cells irrespective of their K-ras status”. Further, the “growth, combinational treatment with Ad.mda-7” value in test [6] was “does not affect growth of normal cells”. In addition, the “apoptosis, combination treatment with Ad.mda-7” value in [7] is “caused apoptosis in pancreatic carcinoma cells independently of their K-ras status”. In addition, the K-ras protein expression entry in test [8] (alone or in combination with Ad.mda-7) is reported as “does not down-regulate K-ras protein expression”. The “MDA-7 protein expression and secretion, combined treatment with Ad.mda-7” value in test [8] (wt and mutated K-ras pancreatic cancer cell lines) is “leads to MDA-7 protein expression and secretion”. Further, the “ROS production, combined treatment with Ad.mda-7” value in test [9] is given as “Caused ROS overproduction”. Besides, the “apoptosis and cell death” value in test [10] is “caused apoptosis and cell death”.
`COc1cccc(-c2cc(=O)c3ccccc3o2)c1N` [PD98059]: in [11] (10 μm PD98059 + 5 μm LY294002), the “effect of combined MEK1/2 and PI3K inhibition on proliferation of Ad.mda-7 infected cells” value is recorded as “significant additional reduction in proliferation”. Besides, the “effect of single kinase inhibitor on anti-proliferative effects of Ad.mda-7” value in [11] (10 μm PD98059 or 5 μm LY294002) is “neither MEK1/2 nor PI3K enhanced the anti-proliferative effects”.
Regarding `CCC(C)N(C)C(=O)c1cc2ccccc2c(-c2ccccc2Cl)n1` (stereo not drawn) [PK11195], the “effect of PK11195 on Ad.mda-7-induced killing” value in [2] (PK11195 50 μM) is “enhanced Ad.mda-7-induced killing”. Besides, in test [12], the “effect of PK11195 on MPT, annexin V staining and killing” value is listed as “without inducing any of these changes in P69 cells”.
Take `O=S(=O)(O)c1cc(O)c(O)c(S(=O)(=O)O)c1` [Tiron]: the “effect of antioxidant on cell death promoting activity of Ad.mda-7” value in [2] (NAC 5 mM, Tiron 1 mM, 48 h) was “abrogated”.
`COC(=O)C[C@H](NC(=O)[C@H](C)NC(=O)[C@@H](NC(=O)OCc1ccccc1)C(C)C)C(=O)CF` [z-VAD.fmk] (Cbz-Val-Ala-Asp(OMe)-CH2F): the “effect of z-VAD.fmk on cell death” value in test [2] (z-VAD.fmk 50 μM) is given as “inhibited cell death”.
